This assay relates to BN-130 strain. Description: Susceptibility of the BN-130 strain to antibiotics. It is filed as cell-based, Pseudomonas stutzeri.
As to `O=C(N[C@H](CO)[C@H](O)c1ccc([N+](=O)[O-])cc1)C(Cl)Cl` [Chloramphenicol], the Susceptibility to antibiotics result was “Susceptible to a medium degree”. As for `CC1(C)S[C@@H]2[C@H](NC(=O)Cc3ccccc3)C(=O)N2[C@H]1C(=O)O` [Penicillin], the entry is “Resistant”; as for `CN(C)[C@@H]1C(O)=C(C(N)=O)C(=O)[C@@]2(O)C(O)=C3C(=O)c4c(O)cccc4[C@@](C)(O)[C@H]3C[C@@H]12` [Tetracycline], “Susceptible”; as for `CC1(C)S[C@@H]2[C@H](NC(=O)[C@H](N)c3ccccc3)C(=O)N2[C@H]1C(=O)O` [aminobenzylpenicillin], “Resistant”. As for `O=C(Cc1cccs1)N[C@@H]1C(=O)N2C(C(=O)[O-])=C(C[n+]3ccccc3)CS[C@H]12` [cephaloridine], the entry is “Resistant”; as for `NC[C@H]1O[C@H](O[C@H]2[C@H](O)[C@@H](O[C@H]3O[C@H](CO)[C@@H](O)[C@H](N)[C@H]3O)[C@H](N)C[C@@H]2N)[C@H](O)[C@@H](O)[C@@H]1O` [kanamycin], “Susceptible to a medium degree”.

Turning to `CCn1cc(C(=O)O)c(=O)c2ccc(C)nc21` [nalidixic acid], the Susceptibility to antibiotics result is recorded as “Susceptible”. As for `[H]/N=C(/N)N[C@H]1[C@H](O)[C@@H](O)[C@H](O[C@@H]2O[C@@H](C)[C@](O)(C=O)[C@H]2O[C@@H]2O[C@@H](CO)[C@H](O)[C@@H](O)[C@@H]2NC)[C@@H](N/C(N)=N\[H])[C@@H]1O` [streptomycin], the entry is “Susceptible to a medium degree”. Turning to colistin, the Susceptibility to antibiotics entry is “Susceptible”. Regarding polymixin, the Susceptibility to antibiotics entry is “Susceptible”.

The record behind these values is patent US4027014A, “Antibiotic BN-130 substances and the production thereof” (Meiji Seika Kaisha, Ltd., priority 1974, dated 1977).
